For ten compounds, GI50 and TGI results are on record in PubChem BioAssay (NCI).

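Five compound concentrations were applied to cells in 96-well plates for 48 hours; endpoints were derived by simple linear interpolation of the resulting dose-response curve. GI50 = concentration required for 50% inhibition of growth. TGI marks complete inhibition of growth.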 Some results are limits rather than exact numbers.

Test systems include ACHN renal; EKVX NSCLC; HOP-62 NSCLC; HT29 colon; MOLT-4 leukemia; NCI-H23 lung; NCI-H460 lung; OVCAR-8 ovarian; SK-MEL-2 melanoma.
What all share (test): NCI tumour cell line growth inhibition, 48 h

In the case of `COc1cc(Cc2cnc(/N=C3\C(=O)N(CN4CCN(c5c(F)cc6c(=O)c(C(=O)O)cn(C7CC7)c6c5OC)CC4C)c4ccc(F)cc43)nc2N)cc(OC)c1OC` (stereo not given), the GI50 was 1.72 µM with ACHN renal; 21.9 µM in the assay on EKVX NSCLC; 14.4 µM in the assay with HOP-62 NSCLC; 14.9 µM in the assay with HT29 colon; 1.16 µM in the assay with MOLT-4 leukemia; 18.1 µM in the assay with NCI-H23 lung. For the same compound, the GI50 in the assay on NCI-H460 lung is 18.9 µM; in the assay with OVCAR-8 ovarian, 32.1 µM; with SK-MEL-2 melanoma it was 37.8 µM. The TGI was 14.6 µM in the assay with ACHN renal; 56.6 µM in the assay on EKVX NSCLC; 27.4 µM with HOP-62 NSCLC; > 100 µM with HT29 colon; 6.97 µM in the assay on MOLT-4 leukemia; 42.9 µM in the assay on NCI-H23 lung. The TGI in the assay with NCI-H460 lung, in the assay on OVCAR-8 ovarian and in the assay on SK-MEL-2 melanoma was > 100 µM in each case.
For the compound `Cc1ccc(NC2=C(Cl)C(=O)N(Cc3ccccc3)C2=O)cc1O`, the GI50 in the assay with EKVX NSCLC was 17.8 µM; with HOP-62 NSCLC it was 34.8 µM; in the assay with MOLT-4 leukemia, 24.3 µM; with NCI-H23 lung, 34.3 µM; in the assay with NCI-H460 lung it was 34 µM; with OVCAR-8 ovarian it was 26.1 µM. Moreover, the GI50 in the assay with SK-MEL-2 melanoma was 7.83 µM. The TGI is 52.6 µM with EKVX NSCLC; > 100 µM in the assay with HOP-62 NSCLC; > 100 µM with MOLT-4 leukemia; > 100 µM in the assay on NCI-H23 lung; > 100 µM with NCI-H460 lung; > 100 µM with OVCAR-8 ovarian. Further, the TGI in the assay with SK-MEL-2 melanoma was 54.8 µM.
Turning to `O=C(O)c1ccccc1[Se][Se]c1ccccc1C(=O)O`, the TGI in the assay with ACHN renal was > 100 µM; in the assay on HOP-62 NSCLC it was 73.5 µM; in the assay with HT29 colon it was > 100 µM; in the assay with MOLT-4 leukemia, > 100 µM; in the assay on NCI-H23 lung it was > 100 µM; in the assay with NCI-H460 lung it was > 100 µM. The TGI with OVCAR-8 ovarian and in the assay on SK-MEL-2 melanoma was > 100 µM in each case.
For `Cn1c2ccccc2c2c(Nc3ccccc3)c3ccccc3nc21`, the GI50 in the assay on ACHN renal is 23 µM; in the assay on EKVX NSCLC, 14.3 µM; in the assay on HT29 colon, 5.66 µM; in the assay on MOLT-4 leukemia, 7.89 µM; in the assay on NCI-H23 lung it was 31.4 µM; with NCI-H460 lung, 17.5 µM. Also, the GI50 in the assay on OVCAR-8 ovarian is 27.3 µM; in the assay with SK-MEL-2 melanoma, 80 µM. The TGI in the assay on ACHN renal was 65.5 µM; in the assay with EKVX NSCLC it was 51.1 µM; in the assay on HT29 colon it was 60.7 µM; with MOLT-4 leukemia, > 100 µM; in the assay on NCI-H23 lung, 67.4 µM; in the assay on NCI-H460 lung, 41.1 µM. The TGI in the assay with OVCAR-8 ovarian and in the assay with SK-MEL-2 melanoma was > 100 µM in each case.
Consider `COc1cc(CNc2cnc3cc(N)cc(N)c3n2)cc(OC)c1`, for which the GI50 with EKVX NSCLC was 27.3 µM; in the assay on HOP-62 NSCLC, 14.9 µM; with MOLT-4 leukemia, 36.9 µM; in the assay on NCI-H23 lung, 17.3 µM; with NCI-H460 lung, 54.4 µM; in the assay on OVCAR-8 ovarian, 22.6 µM. In addition, in the assay with SK-MEL-2 melanoma, the GI50 is 66.7 µM. For the same compound, the TGI in the assay with EKVX NSCLC is 67.4 µM; with HOP-62 NSCLC, 44.1 µM; with MOLT-4 leukemia it was > 100 µM; in the assay with NCI-H23 lung, 39.8 µM; in the assay on NCI-H460 lung, > 100 µM; in the assay with OVCAR-8 ovarian, 57.6 µM. Further, in the assay on SK-MEL-2 melanoma, the TGI is > 100 µM.
Turning to `CCCCCN(CCCCC)CCCNc1c2c(nc3ccc(Cl)cc13)CCCC2`, the GI50 is 3.48 µM in the assay with ACHN renal; 2.78 µM with EKVX NSCLC; 0.501 µM with HT29 colon; 2.12 µM with NCI-H23 lung; 2.28 µM in the assay on NCI-H460 lung; 2.9 µM in the assay with OVCAR-8 ovarian. Besides, in the assay on SK-MEL-2 melanoma, the GI50 is 2.05 µM. The TGI was found to be 11.6 µM with ACHN renal; 13.6 µM in the assay with EKVX NSCLC; 7.01 µM in the assay with HT29 colon; 6.73 µM in the assay on NCI-H23 lung; 6.9 µM in the assay on NCI-H460 lung; 8.88 µM with OVCAR-8 ovarian. For the same compound, the TGI in the assay with SK-MEL-2 melanoma stood at 3.99 µM.
As to `Cn1cc(C2=C(c3cn(C)c4ncccc34)C(=O)NC2=O)c2ccccc21`, the GI50 is 7.03 µM in the assay on ACHN renal; 10.9 µM with HOP-62 NSCLC; 6.47 µM with HT29 colon; 7.54 µM in the assay on MOLT-4 leukemia; 14.3 µM in the assay with NCI-H23 lung; 9.96 µM in the assay with NCI-H460 lung. The GI50 was 10.1 µM in the assay with OVCAR-8 ovarian and 6.31 µM with SK-MEL-2 melanoma. Further, the TGI with ACHN renal was > 25 µM; in the assay with HOP-62 NSCLC, > 25 µM; with HT29 colon, > 24.1 µM; in the assay on MOLT-4 leukemia it was > 24 µM; in the assay on NCI-H23 lung, > 25 µM; with NCI-H460 lung, > 25 µM. Besides, the figures for the TGI with OVCAR-8 ovarian and with SK-MEL-2 melanoma were > 25 µM and 12.8 µM, respectively.
Take `Cc1nc2ccccc2c(N)c1-c1cc(C)c2c(C)nc3ccccc3c2n1`: the GI50 with ACHN renal was 0.237 µM; with EKVX NSCLC it was 1.61 µM; in the assay with HOP-62 NSCLC it was 1.77 µM; with HT29 colon, 0.749 µM; in the assay on MOLT-4 leukemia, 0.54 µM; in the assay on NCI-H23 lung it was 1.56 µM. Also, the figures for the GI50 with NCI-H460 lung and in the assay with OVCAR-8 ovarian were 0.329 µM and 1.41 µM, respectively. Further, the TGI in the assay with ACHN renal amounted to 0.599 µM; in the assay with EKVX NSCLC, 3.29 µM; in the assay with HOP-62 NSCLC it was 3.36 µM; in the assay on HT29 colon it was 2.52 µM; in the assay on NCI-H23 lung, 3.24 µM; in the assay with NCI-H460 lung, 1.17 µM. Moreover, the TGI in the assay on OVCAR-8 ovarian turned out to be 2.95 µM.
With `CC1=C(C(=O)Nc2ccc(Cl)c(Cl)c2)C(c2cccc(Oc3ccccc3)c2)NC(=S)N1` (stereo not given), the GI50 with ACHN renal was 8.07 µM; with EKVX NSCLC it was 7.55 µM; in the assay with HOP-62 NSCLC, 14.2 µM; in the assay with MOLT-4 leukemia it was > 50 µM; in the assay on NCI-H460 lung it was 7.57 µM; with OVCAR-8 ovarian, 7.8 µM. For the same compound, the GI50 in the assay on SK-MEL-2 melanoma is 9.38 µM. Besides, the TGI in the assay with ACHN renal is 15.1 µM; with EKVX NSCLC, 15 µM; with HOP-62 NSCLC it was 24.2 µM; in the assay with MOLT-4 leukemia, > 50 µM; in the assay on NCI-H460 lung it was 14.4 µM; in the assay with OVCAR-8 ovarian it was 16.8 µM. For the same compound, in the assay with SK-MEL-2 melanoma, the TGI turned out to be 18.9 µM.
For the compound `NC(Cc1c[nH]c2c(O)cccc12)C(=O)O` (stereo not given), the GI50 in the assay on ACHN renal, in the assay with EKVX NSCLC, in the assay on HOP-62 NSCLC, with HT29 colon, in the assay with MOLT-4 leukemia and with NCI-H23 lung was > 100 µM each time. The GI50 in the assay with NCI-H460 lung and in the assay with OVCAR-8 ovarian was > 100 µM in each case. In addition, the TGI in the assay with ACHN renal, with EKVX NSCLC, in the assay on HOP-62 NSCLC, in the assay on HT29 colon, in the assay on MOLT-4 leukemia and with NCI-H23 lung was > 100 µM each time. The TGI in the assay on NCI-H460 lung and in the assay with OVCAR-8 ovarian was > 100 µM throughout.
